Molecules are shown by their SMILES.

This data set in a line: Human HepG2 cell viability assay in 384 well format. Type of data set: toxicity, cell-based. On the set-up: dose 125 nL, time 70.5 hour; cytotoxicity at 70.5 h: concentration not given beside the values. Particulars: HepG2 cells, read-out: Inhibition.
Turning to `CS(=O)(=O)NC[C@H]1OC[C@H]2CN(CCc3ccccc3)CC[C@H]21`, the cytotoxicity at 70.5 h was -0.811%. In the case of `Cc1ocnc1C(=O)N1CCCN(Cc2cscn2)CC1` it was 21.9%; in that of `Cc1nc2cc(-c3nccn3C)nn2c(N2CCCC(CO)C2)c1C` (centres undefined), 2.86%.

Turning to `CC(=O)c1ccc(-c2cnn(CC(=O)Nc3cc(C)nn3C)c2)nc1`, the cytotoxicity at 70.5 h is -13%. Take `CC(C)Oc1ccc(CNC(=O)CCN2C(=O)CCC2=O)cc1F`: the cytotoxicity at 70.5 h is -3.49%. As for `CNc1ncc(CN(C)C(=O)c2ccc(C3CCCO3)s2)cn1` (centres undefined), the cytotoxicity at 70.5 h is -3.31%. As to `CC(C)N[C@@H]1CO[C@H](CNC(=O)c2ccccc2)[C@H]1O`, the cytotoxicity at 70.5 h is -0.106%. Turning to `Cc1cc(C)n(CC(C)NCCN2CCc3ccccc32)n1` (centres undefined), the cytotoxicity at 70.5 h is -3.59%. Consider `Cc1nccn1CCC1CCCCN1Cc1cccc(CCN)c1` (centres undefined), for which the cytotoxicity at 70.5 h is -1.82%. `Cc1cccc(CN2CCC3(CC2)COC(COCC2CC2)C3)n1` (centres undefined): the cytotoxicity at 70.5 h was -6.77%.

`Cc1ccc(S(=O)(=O)NCC2(O)CCOc3ccccc32)s1` (centres undefined): the cytotoxicity at 70.5 h was -4.01%. As to `CCOCc1ncn2c1CN(S(=O)(=O)c1cccc(C)c1)CC2`, the cytotoxicity at 70.5 h was -1.4%. Consider `Cc1nnc(NC(=O)CN2CCCC(Cn3cncn3)C2)s1` (centres undefined), for which the cytotoxicity at 70.5 h was -1.69%. In the case of `CNC(=O)c1nc2c(s1)CCN(C(=O)c1cccc(OC)c1)CC2` it was -10%; in that of `CCN(C)c1ncnc2c1CCN(C(=O)c1ccc(C)o1)CC2`, -11.3%; in that of `O=C(CCNc1ncccn1)N1CCCN(c2nccs2)CC1`, 15.2%. The same measure for `CN(C)c1nccc(C2CCN(C3CCCCC3O)CC2)n1` (centres undefined): 21.1%; for `O=C(NCCS(=O)(=O)N1CCc2ccccc21)c1c(O)cc(F)cc1F`: -2.02%. `COc1c(C)cnc(CN2CCOC(Cn3nc(C)cc3C)C2)c1C` (centres undefined): the cytotoxicity at 70.5 h is -2.15%. In the case of `N#CCCN(CC1CCCO1)C(=O)c1ccc(C#N)cc1` (centres undefined) it was -2.77%; in that of `Cc1ccc(CCN2CCCC23Cc2ccccc2CNC3=O)cc1` (centres undefined), -4.38%. Take `NC(=O)NC(=O)CN1CCN(c2nccs2)CC1`: the cytotoxicity at 70.5 h was -11.6%. For the compound `CN(C)C(=O)N1CCOCC2(CCN(c3ncccn3)C2)C1` (centres undefined), the cytotoxicity at 70.5 h is -5.25%. As to `O=C(c1cnccn1)N1CCCC(Cc2cccc3ncccc23)C1` (centres undefined), the cytotoxicity at 70.5 h was -4.96%.

Consider `c1ccc(-c2cc(CNCCCC3CCOC3)c3nnnn3c2)cc1` (centres undefined), for which the cytotoxicity at 70.5 h worked out at 5.9%. The same measure for `Cc1noc(CCCC(=O)NCC2CCS(=O)(=O)C2)n1` (centres undefined): 1.41%; for `COC(=O)N1CCN2C[C@H](CO)[C@@H](c3ccccc3)[C@H]2C1`: -4.89%; for `COc1ccc(Cl)cc1NCC(=O)NCCNc1ncccn1`: -2.38%. The same measure for `COCCOc1cccc(CNC(=O)CN2CCN(C)CC2C)c1` (centres undefined): 10.3%. As for `O=C(N1CC(c2cccnc2)C1)C1(c2ccc(F)cc2)CCOCC1`, the cytotoxicity at 70.5 h was 3.01%. Regarding `COCC(=O)N1CCC(c2csc(NC(C)=O)n2)CC1`, the cytotoxicity at 70.5 h was -8.01%. Take `Cc1cccc(CN2CCc3[nH]nc(C(=O)N4CCOCC4)c3C2)n1`: the cytotoxicity at 70.5 h is 0.815%. In the case of `N#Cc1cn(C2CC2)c(=O)n(Cc2noc(-c3cccs3)n2)c1=O` it was -4.93%; in that of `O=C1NCc2ccccc2CC12CCCN(Cc1ccsc1)C2` (centres undefined), 2.74%. In the case of `CC(c1cccc(O)c1)N(C)S(N)(=O)=O` (centres undefined) it was 37%; in that of `NCC1CN(C(=O)c2cccc(-n3cccn3)c2)CCO1` (centres undefined), 5.52%; in that of `CCOc1ccc(OCc2nc3c(c(=O)[nH]2)CCNC3)cc1`, -13.5%. In the case of `Cc1nn(C)cc1C1=NS(=O)(=O)N(C)C(C(=O)Nc2ccc(Cl)cc2)=C1`, the cytotoxicity at 70.5 h worked out at 1.32%. In the case of `CC1(c2ncc(CN3CCSCC3)cn2)CCCCO1` (centres undefined) it was -11.9%; in that of `Cc1cnn(CC2CCCN2C(=O)c2ccccc2-n2cnnn2)c1` (centres undefined), -4.97%; in that of `COCC1N(C(=O)Nc2ccccc2)[C@H]2CC[C@]1(O)CC2` (some centres undefined), -7.67%.

In the case of `CSCC[C@H](NC(C)=O)c1nc(CCc2ccccc2)n[nH]1`, the cytotoxicity at 70.5 h is -3.53%. On to `CC(C)c1nc2n(n1)CC(NCc1nc(C3CC3)no1)CC2` (centres undefined), for which the cytotoxicity at 70.5 h is -1.86%. The same measure for `COCc1ccc(C(=O)N(CCC#N)Cc2ccccn2)cc1`: -3.02%; for `CN1CCN(CCNC(=O)c2sccc2C2CC2)CC1`: -2.66%. As for `O=C(NC1CC1)C1=CC2(CCN(CC3CC3)CC2)c2ccccc21`, the cytotoxicity at 70.5 h was -4.67%. The same measure for `CCC1CN(C)c2ccccc2CN1C(=O)Nc1cccc(F)c1` (centres undefined): -9.77%; for `O=C(c1cccc(F)c1)N1CC[C@@H]2CN(c3ncccn3)CCO[C@@H]2C1`: -15.1%; for `Cc1nc(C(=O)N2CCC(c3nccn3Cc3ccncc3)CC2)cs1`: -5.72%. In the case of `CN(C)CCN(C)C[C@H]1CN2CC[C@H]1C[C@@H]2CNC(=O)Nc1ccsc1` it was -2.68%; in that of `COc1ccc2c(c1)nc1n2[C@@H](CNCc2cnn(C)c2)COC1`, -8.24%. For `Cc1ccoc1C(=O)N1C[C@@H]2COC[C@]2(COCc2cccnc2)C1`, the cytotoxicity at 70.5 h was -0.687%. With `Cc1nc2c(c(NCc3ccc(-c4ccccn4)s3)n1)CCNCC2`, the cytotoxicity at 70.5 h was -8.23%. Take `Cc1csc2c(C3CCCN(C(=O)CCCn4cncn4)C3)nc(C)n12` (centres undefined): the cytotoxicity at 70.5 h worked out at 2.61%. In the case of `Cc1cccc2c1NC(c1cnc(C3CCC3)s1)NC2=O` (centres undefined) it was -18.5%.

In the case of `CCn1nc(C(C)C)cc1C(=O)NCC1CCCN(c2ccccn2)C1` (centres undefined), the cytotoxicity at 70.5 h was -6.28%. For the compound `COCCN(Cc1nccs1)c1nc2c(s1)c(C)nn2C`, the cytotoxicity at 70.5 h is -10.8%. Turning to `CCc1cnc(CN2CCOC(c3nc(C)n[nH]3)C2)o1` (centres undefined), the cytotoxicity at 70.5 h is -7.69%.

`CCS(=O)(=O)NC[C@]12COC[C@H]1CN(Cc1cccnc1OC)C2`: the cytotoxicity at 70.5 h was -19.9%. Regarding `c1coc(CN2C[C@@H]3OCCN(CC4CCCO4)[C@@H]3C2)c1` (some centres undefined), the cytotoxicity at 70.5 h is -11.5%.

Turning to `CN(C)c1nccnc1C1CCN(C2CCCCC2O)CC1` (centres undefined), the cytotoxicity at 70.5 h is -8.92%. The same measure for `O=S(=O)(NC1CCCCC12OCCO2)c1cc(F)cc(F)c1` (centres undefined): -3.19%. On to `COCC(=O)NC1CCN(c2cccc(OC(F)(F)F)c2)C1=O` (centres undefined), for which the cytotoxicity at 70.5 h is -7.95%.

For the compound `NC(=O)COc1ccc(CN2CCNC(C(=O)NC3CC3)C2)cc1Cl` (centres undefined), the cytotoxicity at 70.5 h is -10.1%.

Take `CC(c1ccncc1)N(CCN(C)C)C(=O)Nc1ccc(Cl)c(Cl)c1` (centres undefined): the cytotoxicity at 70.5 h was -11.5%. The same measure for `COc1cccc(CNC(=O)c2cc(C)nc(N3CCCC3)n2)c1`: 17.7%; for `Cn1cc(C(=O)NCc2cn3c(n2)CN(Cc2ccncc2)CC3)cn1`: -7.44%. On to `c1cc2c(cc1CN1C[C@@H]3COC[C@@H](N4CCCC4)[C@@H]3C1)OCO2`, for which the cytotoxicity at 70.5 h was -6.89%. For the compound `CC(NC(=O)CN1CCN(c2cccc(Cl)c2)CC1)c1ccco1` (centres undefined), the cytotoxicity at 70.5 h is -5.94%. For `CCC(C(=O)NC1CCCCC1)n1cccc(OC)c1=O` (centres undefined), the cytotoxicity at 70.5 h is -1.81%.

As for `CCc1nc2n(n1)CC(NCC(=O)Nc1nccs1)CC2` (centres undefined), the cytotoxicity at 70.5 h was determined as 8%. In the case of `CNc1ncc2c(n1)CN(CCc1ccccc1)C2=O` it was -12.7%; in that of `Cc1ccoc1-c1nnc(CN2CCCC(Cn3cncn3)C2)o1` (centres undefined), -6.83%; in that of `CCOC(=O)C1CC2(CCCCC2)N2CCC(=O)N12` (centres undefined), -4.11%. In the case of `COCCNC(=O)[C@H]1C[C@@H]2CCN(c3ncccn3)C[C@H]2O1` it was -1.44%; in that of `N#Cc1nc(COc2ccc3c(c2)OCO3)oc1N1CCCC1`, -26.5%; in that of `Cc1nc(C(=O)N2CCCC(c3cccc(-n4ccnc4)n3)C2)co1` (centres undefined), 4.94%. For `CCCS(=O)(=O)N1CC(=O)N(Cc2cccc(OC)c2OC)CC(O)C1` (centres undefined), the cytotoxicity at 70.5 h stood at 9.04%. For `CC(C)c1cc(=O)[nH]c(-c2ccccc2CN2CCCC2C)n1` (centres undefined), the cytotoxicity at 70.5 h is -19.9%.

Regarding `CC(=O)NCCNC(=O)c1cnc(-c2ccccc2)nc1`, the cytotoxicity at 70.5 h is -17.1%. The same measure for `CC(=O)N(Cc1noc(C)n1)C1CCN(CCOc2ccccc2)C1` (centres undefined): 1.16%; for `COc1cccc(-c2cnc3n2CCC32CCN(S(C)(=O)=O)CC2)c1`: -2.2%. For `N#CCCN(C(=O)CN1CCCC1c1ccccc1Cl)c1ccccc1` (centres undefined), the cytotoxicity at 70.5 h was -11.7%.

As for `CNC(=O)NCC1CCC2(CCN(C(=O)c3ccccc3)CC2)CO1` (centres undefined), the cytotoxicity at 70.5 h is -2.1%. `Cc1nc(C2CCCN(C(=O)COCCc3ccccc3)C2)no1` (centres undefined): the cytotoxicity at 70.5 h is -6.43%.

`CN(Cc1ccco1)C(=O)NCc1nnc2n1CCC2`: the cytotoxicity at 70.5 h is -8.06%.

Consider `CC(C(=O)NCc1ccnc(Oc2ccc(F)cc2)c1)n1cncn1` (centres undefined), for which the cytotoxicity at 70.5 h was -9.56%. `CC(=O)Nc1ccc(CNCC(O)c2ccc(C)cc2)cc1` (centres undefined): the cytotoxicity at 70.5 h was -8.81%. Turning to `COc1ccccc1OCc1cc(C(=O)N2CCS(=O)(=O)CC2)n[nH]1`, the cytotoxicity at 70.5 h is -6.21%. With `CCc1nnc(CN(C)c2nc(C(C)C)nc3c2cnn3C)o1`, the cytotoxicity at 70.5 h is -5.57%. In the case of `CC(=O)N1N=C(c2ccccc2)OC1C(=O)NCCc1cccc(Cl)c1` (centres undefined) it was -19.7%; in that of `Fc1ccc(C2CCCN2Cc2nnnn2C2CC2)cc1` (centres undefined), 28.2%.

Consider `COc1ccc(N(C)Cc2nc3c(cnn3C)c(=O)[nH]2)cc1OC`, for which the cytotoxicity at 70.5 h came out at 0.734%. In the case of `O=C(c1cnc2ccc(F)cc2c1NCc1ccccn1)N1CCCC1`, the cytotoxicity at 70.5 h is -17.9%. The same measure for `Cc1cc(CC(=O)N2CCCC2c2nc(C(C)C)no2)on1` (centres undefined): 5.26%; for `O=S(=O)(Cc1ccccc1)N1CCCn2cnc(CN3CCCC3)c2C1`: 0.898%; for `Cc1cnn(CC2CCCN2C(=O)c2ccc(F)cc2Cl)c1` (centres undefined): 0.634%. The same measure for `COc1ccccc1OCC(=O)NS(=O)(=O)c1ccccc1Br`: 0.476%; for `COc1ccccc1OC1CN(c2ccncc2)C1`: -4.23%.
